Results: ChEMBL document CHEMBL1125122, “Antibacterials. Synthesis and structure-activity studies of 3-aryl-2-oxooxazolidines. 2. The "A" group” (1990)
≈ marks a conversion by molar mass, not a printed value.

Experiments:
Enterococcus faecalis = test: In vitro for antibacterial activity against Enterococcus faecalis strain STCO-19; type: functional
Staphylococcus aureus = test: In vitro for antibacterial activity against Staphylococcus aureus strain SFCO-1a; type: functional

SMILES | MIC (Enterococcus faecalis) [µg/mL] | MIC (Staphylococcus aureus) [µg/mL]
CC(=O)NC[C@H]1CN(c2ccc([S@+](C)[O-])cc2)C(=O)O1 | 16 (≈ 54 µM) | 8 (≈ 27 µM)
CCCc1ccc(N2C[C@H](CNC(C)=O)OC2=O)cc1 | 4 (≈ 14.5 µM) | 2 (≈ 7.24 µM)
CC(=O)NC[C@@H]1CN(c2ccc(S(C)=O)cc2)C(=O)O1 (stereo partly specified) | 4 (≈ 13.5 µM) | 4 (≈ 13.5 µM)
CC(=O)NC[C@H]1CN(c2ccc(C)cc2)C(=O)O1 | 32 (≈ 129 µM) | 32 (≈ 129 µM)
CC(=O)NC[C@H]1CN(c2ccc(C=O)cc2)C(=O)O1 | 8 (≈ 30.5 µM) | 8 (≈ 30.5 µM)
CC(=O)NC[C@H]1CN(c2ccc(C(=O)CF)cc2)C(=O)O1 | 2 (≈ 6.8 µM) | 2 (≈ 6.8 µM)
CC(=O)NC[C@H]1CN(c2ccc(C(C)(C)O)cc2)C(=O)O1 | 4 (≈ 13.7 µM) | 2 (≈ 6.84 µM)
CCCC(=O)c1ccc(N2C[C@H](CNC(C)=O)OC2=O)cc1 | 0.25 (≈ 0.821 µM) | 0.25 (≈ 0.821 µM)
CCC(=O)c1ccc(N2C[C@H](CNC(C)=O)OC2=O)cc1 | 0.5 (≈ 1.72 µM) | 1 (≈ 3.44 µM)
CC(=O)NC[C@H]1CN(c2ccccc2)C(=O)O1 | 128 (≈ 546 µM) | 128 (≈ 546 µM)
CC(=O)NC[C@H]1CN(c2ccc([S+]([O-])CF)cc2)C(=O)O1 (stereo partly specified) | 8 (≈ 25.5 µM) | 8 (≈ 25.5 µM)
CC(=O)NC[C@H]1CN(c2ccc(/C=N\O)cc2)C(=O)O1 | 16 (≈ 57.7 µM) | 16 (≈ 57.7 µM)
C#Cc1ccc(N2C[C@H](CNC(C)=O)OC2=O)cc1 | 16 (≈ 61.9 µM) | 16 (≈ 61.9 µM)
CC(=O)NC[C@H]1CN(c2ccc(N)cc2)C(=O)O1 | 128 (≈ 513 µM) | 128 (≈ 513 µM)
CC(=O)NC[C@H]1CN(c2ccc([S+](C)[O-])cc2)C(=O)O1 (stereo partly specified) | 4 (≈ 13.5 µM) | 4 (≈ 13.5 µM)
CCN(CC)c1ccc(N2C[C@H](CNC(C)=O)OC2=O)cc1 | 16 (≈ 52.4 µM) | 8 (≈ 26.2 µM)
CC(=O)NC[C@H]1CN(c2ccc(C(=O)CC#N)cc2)C(=O)O1 | 64 (≈ 212 µM) | 8 (≈ 26.6 µM)
CCC/C(=N/O)c1ccc(N2C[C@H](CNC(C)=O)OC2=O)cc1 | 4 (≈ 12.5 µM) | 4 (≈ 12.5 µM)
CC(=O)NC[C@H]1CN(c2ccc(C(F)(F)C(F)(F)F)cc2)C(=O)O1 | 2 (≈ 5.68 µM) | 2 (≈ 5.68 µM)
CC(=O)NC[C@H]1CN(c2ccc(I)cc2)C(=O)O1 | 8 (≈ 22.2 µM) | 8 (≈ 22.2 µM)
CC(=O)NC[C@H]1CN(c2ccc(Br)cc2)C(=O)O1 | 8 (≈ 25.5 µM) | 16 (≈ 51.1 µM)

SMILES | MIC (Enterococcus faecalis) [µg/mL] | MIC (Staphylococcus aureus) [µg/mL]
CC(=O)NC[C@H]1CN(c2ccc(C(C)O)cc2)C(=O)O1 (stereo partly specified) | 4 (≈ 14.4 µM) | 4 (≈ 14.4 µM)
CC(=O)NC[C@H]1CN(c2ccc(C(O)C(C)C)cc2)C(=O)O1 (stereo partly specified) | 8 (≈ 26.1 µM) | 4 (≈ 13.1 µM)
CC(=O)NC[C@H]1CN(c2ccc(C(=O)COC(C)=O)cc2)C(=O)O1 | 2 (≈ 5.98 µM) | 0.5 (≈ 1.5 µM)
COC(=O)c1ccc(N2C[C@H](CNC(C)=O)OC2=O)cc1 | 2 (≈ 6.84 µM) | 2 (≈ 6.84 µM)
CC(=O)NC[C@H]1CN(c2ccc(S(=O)(=O)CF)cc2)C(=O)O1 | 1 (≈ 3.03 µM) | 1 (≈ 3.03 µM)
CC(=O)NC[C@H]1CN(c2ccc(C(=O)C(C)C)cc2)C(=O)O1 | 1 (≈ 3.29 µM) | 1 (≈ 3.29 µM)
CC(=O)NC[C@H]1CN(c2ccc(C(=O)CBr)cc2)C(=O)O1 | 8 (≈ 22.5 µM) | 4 (≈ 11.3 µM)
CC(=O)NC[C@H]1CN(c2ccc(SC(F)(F)F)cc2)C(=O)O1 | 4 (≈ 12 µM) | 4 (≈ 12 µM)
CC(=O)NC[C@H]1CN(c2ccc([N+](=O)[O-])cc2)C(=O)O1 | 2 (≈ 7.16 µM) | 2 (≈ 7.16 µM)
CCSc1ccc(N2C[C@H](CNC(C)=O)OC2=O)cc1 | 2 (≈ 6.79 µM) | 1 (≈ 3.4 µM)
CC(=O)NC[C@H]1CN(c2ccc(N(C)C)cc2)C(=O)O1 | 16 (≈ 57.7 µM) | 16 (≈ 57.7 µM)
CC(=O)NC[C@H]1CN(c2ccc(S(=O)(=O)C(F)(F)F)cc2)C(=O)O1 | 2 (≈ 5.46 µM) | 2 (≈ 5.46 µM)
CCCC(O)c1ccc(N2C[C@H](CNC(C)=O)OC2=O)cc1 (stereo partly specified) | 32 (≈ 104 µM) | 16 (≈ 52.2 µM)
CC(=O)NC[C@H]1CN(c2ccc(/C(C)=N\O)cc2)C(=O)O1 | 2 (≈ 6.87 µM) | 4 (≈ 13.7 µM)
CCCSc1ccc(N2C[C@H](CNC(C)=O)OC2=O)cc1 | 8 (≈ 25.9 µM) | 8 (≈ 25.9 µM)
CC(=O)NC[C@H]1CN(c2ccc(C(=O)CCl)cc2)C(=O)O1 | 2 (≈ 6.44 µM) | 0.5 (≈ 1.61 µM)
CCS(=O)(=O)c1ccc(N2C[C@H](CNC(C)=O)OC2=O)cc1 | 8 (≈ 24.5 µM) | 8 (≈ 24.5 µM)
CC(=O)NC[C@H]1CN(c2ccc(C(C)(C)C)cc2)C(=O)O1 | 2 (≈ 6.89 µM) | 1 (≈ 3.44 µM)
CCc1ccc(N2C[C@H](CNC(C)=O)OC2=O)cc1 | 8 (≈ 30.5 µM) | 4 (≈ 15.2 µM)
CCCS(=O)(=O)c1ccc(N2C[C@H](CNC(C)=O)OC2=O)cc1 | 32 (≈ 94 µM) | 32 (≈ 94 µM)
CC(=O)NC[C@H]1CN(c2ccc([S+]([O-])C(F)(F)F)cc2)C(=O)O1 (stereo partly specified) | 2 (≈ 5.71 µM) | 2 (≈ 5.71 µM)

SMILES | MIC (Enterococcus faecalis) [µg/mL] | MIC (Staphylococcus aureus) [µg/mL]
C=Cc1ccc(N2C[C@H](CNC(C)=O)OC2=O)cc1 | 8 (≈ 30.7 µM) | 4 (≈ 15.4 µM)
CCCCOc1ccc(N2C[C@H](CNC(C)=O)OC2=O)cc1 | 16 (≈ 52.2 µM) | 8 (≈ 26.1 µM)
CC(=O)NC[C@H]1CN(c2ccc(S(C)(=O)=O)cc2)C(=O)O1 | 4 (≈ 12.8 µM) | 4 (≈ 12.8 µM)
CC(=O)NCC(=O)c1ccc(N2C[C@H](CNC(C)=O)OC2=O)cc1 | 16 (≈ 48 µM) | 8 (≈ 24 µM)
CC(=O)Cc1ccc(N2C[C@H](CNC(C)=O)OC2=O)cc1 | 8 (≈ 27.6 µM) | 4 (≈ 13.8 µM)
CC(=O)NC[C@H]1CN(c2ccc(Sc3ccccc3)cc2)C(=O)O1 | 128 (≈ 374 µM) | > 128
CCC[S+]([O-])c1ccc(N2C[C@H](CNC(C)=O)OC2=O)cc1 (stereo partly specified) | 64 (≈ 197 µM) | 32 (≈ 98.6 µM)
CSc1ccc(N2C[C@H](CNC(C)=O)OC2=O)cc1 | 4 (≈ 14.3 µM) | 4 (≈ 14.3 µM)
CCC(O)c1ccc(N2C[C@H](CNC(C)=O)OC2=O)cc1 (stereo partly specified) | 64 (≈ 219 µM) | 32 (≈ 109 µM)
CC(=O)NC[C@H]1CN(c2ccc(C(F)(F)F)cc2)C(=O)O1 | 8 (≈ 26.5 µM) | 8 (≈ 26.5 µM)
CC(=O)NCC1CN(c2ccc(Cl)cc2)C(=O)O1 (racemic) | 64 (≈ 238 µM) | 32 (≈ 119 µM)
CC(=O)NCC1CN(c2ccc(CO)cc2)C(=O)O1 (racemic) | 16 (≈ 60.5 µM) | 32 (≈ 121 µM)
CC(=O)NCC1CN(c2ccc(Oc3ccccc3)cc2)C(=O)O1 (racemic) | 64 (≈ 196 µM) | 64 (≈ 196 µM)
CCCCc1ccc(N2CC(CNC(C)=O)OC2=O)cc1 (racemic) | 4 (≈ 13.8 µM) | 4 (≈ 13.8 µM)
CC(=O)NCC1CN(c2ccc(C(C)C)cc2)C(=O)O1 (racemic) | 4 (≈ 14.5 µM) | 4 (≈ 14.5 µM)
CC(=O)NCC1CN(c2ccc(F)cc2)C(=O)O1 (racemic) | > 64 | > 64
CCOC(=O)c1ccc(N2CC(CNC(C)=O)OC2=O)cc1 (racemic) | 4 (≈ 13.1 µM) | 4 (≈ 13.1 µM)
CC(=O)NCC1CN(c2ccc(C#N)cc2)C(=O)O1 (racemic) | 16 (≈ 61.7 µM) | 16 (≈ 61.7 µM)
COc1ccc(N2CC(CNC(C)=O)OC2=O)cc1 (racemic) | 32 (≈ 121 µM) | 32 (≈ 121 µM)
CC[S+]([O-])c1ccc(N2CC(CNC(C)=O)OC2=O)cc1 (single isomer, unassigned) | 16 (≈ 51.6 µM) | 16 (≈ 51.6 µM)
CC(=O)NC[C@H]1CN(c2ccc(C(C)=O)cc2)C(=O)O1 [DUP-721] | 1 (≈ 3.62 µM) | 0.5 (≈ 1.81 µM)
